In patent publication EP4563571A1, “PRMT5 INHIBITORS” (Beijing Earthwise Technology Co., Ltd., priority 2022, dated 2024):

system: HCT116^MTAP Deletion cells; assay: Anti-proliferation assay on cells (Cell-Titer Glo, 10 days); assay type: cell-based; conditions: 240 h, HCT116^MTAP Deletion cells, 10 days incubation, CTG readout; read-out: HCT116^MTAP Deletion GI50
Method: HCT116^MTAP Deletion cells were from Pharmaron (China); HCT116 cells were from ATCC; McCoy's 5A medium was purchased from Invitrogen (USA); penicillin-streptomycin and fetal bovine serum were purchased from Gibco (USA); a 384-well plate was purchased from PerkinElmer (USA); and Cell-Titer Glo reagent was purchased from Promega (USA).
Compound dissolution: All the compounds were dissolved in dimethyl sulfoxide (DMSO) and then stored. The compounds were stored at room temperature in a dry condition for 3 months for short term storage or at -20 °C for long term storage.
Cell culture and passaging
The cells were cultured strictly in accordance with ATCC requirements. The cell culture medium (McCoy's 5A medium + 10% fetal bovine serum + 1% penicillin + streptomycin) was transferred to a 15 mL centrifuge tube and centrifuged at 1000 rpm for 5 min. The supernatant was removed. The cells were resuspended with complete culture medium, inoculated into a culture dish at the required density, and cultured in an incubator at 37 °C, 95% humid air, and 5% carbon dioxide. The culture medium was replenished or the cells were passaged every 2-3 days depending on the cell growth condition.
Cell proliferation activity assay
When the confluency of cells in the culture dish reached about 90%, the cells were washed twice with PBS, and then treated with trypsin to become single cells. The cells were counted, and 40µl of the cells was inoculated into each well of a 384-well plate (50 cells/well). The plate was equilibrated at 37 °C and 5% carbon dioxide for 10 to 15 minutes. The compounds were injected into the 384-well plate using Echo550, and positive control and negative control (0.1% DMSO) were set up. Each compound was subjected to a 3-fold dilution, resulting in 10 concentration gradients, in duplicate, and the content of DMSO was 0.1%. The 384-well plate was incubated in a cell culture incubator for 10 days.
Then, 40 µl of cell proliferation assay reagent (CTG) was added to the 384-well plate, and the plate was shaken to mix well. Then, the 384-well plate was incubated at 37 °C and 5% carbon dioxide in the dark for 30 minutes. The data were read using the Envision multifunctional microplate reader. […] According to the different drug concentrations and their corresponding inhibition rates, the GI50 curve was drawn using GraphPad 8.0 software. The data were analyzed, and the final IC50 value was obtained.

Compound | GI50 [nM]
CN(C(=O)C(=O)Nc1cnc(N)c2c1cnn2C)C1CCOCC1 [Example 120] | 1000 to 10000
CCN(C(=O)C(=O)Nc1cnc(N)c2c1cnn2C)C1COc2cc(C(F)(F)F)ccc21 (stereo not drawn) [Example 121] | < 10
CC(C)CN(C(=O)C(=O)Nc1cnc(N)c2c1cnn2C)C1COc2cc(C(F)(F)F)ccc21 (stereo not drawn) [Example 122] | 10 to 100
Cn1ncc2c(NC(=O)C(=O)N(CC3CC3)C3COc4cc(C(F)(F)F)ccc43)cnc(N)c21 (stereo not drawn) [Example 123] | < 10
CCC(C)N(Cc1ccc(C2=CCN(C(=O)OC)CC2)cn1)C(=O)C(=O)Nc1cnc(N)c(C)c1 (stereo not drawn) [Example 125-P1] | < 10
CN(C(=O)C(=O)Nc1cnc(N)c2c1cnn2C)C1CCOC1 (stereo not drawn) [Example 126] | 1000 to 10000
CN(C(=O)C(=O)Nc1cnc(N)c2c1cnn2C)C1CCOc2cc(C(F)(F)F)ccc21 (stereo not drawn) [Example 127] | 10 to 100
CC(C)Oc1ccc2c(c1)COCC2N(C)C(=O)C(=O)Nc1cnc(N)c2c1cnn2C (stereo not drawn) [Example 128] | 10 to 100
CN(C(=O)C(=O)Nc1cnc(N)c2c1cnn2C)C1CCCOC1 (stereo not drawn) [Example 129] | 1000 to 10000
CN(C(=O)C(=O)Nc1cnc(N)c2c1cnn2C)C1CCN(c2ccccc2)C1 (stereo not drawn) [Example 130] | 100 to 1000
CCC(C)N(C(=O)C(=O)Nc1cnc(N)c2c1cnn2C)C1COCc2cc(C(F)(F)F)ccc21 (stereo not drawn) [Example 131] | 10 to 100
CN(C(=O)C(=O)Nc1cnc(N)c2c1cnn2C)C1CCCN(c2ccccc2)C1 (stereo not drawn) [Example 133] | 1000 to 10000
CN(C(=O)C(=O)Nc1cnc(N)c2c1cnn2C)C1COCc2ccc(C(F)(F)F)cc21 (stereo not drawn) [Example 134] | 10 to 100
CN(C(=O)C(=O)Nc1cnc(N)c2c1cnn2C)C1CCc2cc(C(F)(F)F)ccc21 (stereo not drawn) [Example 136] | 10 to 100
CN1CCC(c2ccc3c(c2)COCC3N(C)C(=O)C(=O)Nc2cnc(N)c3c2cnn3C)CC1 (stereo not drawn) [Example 139] | 10 to 100
CN(C(=O)C(=O)Nc1cnc(N)c2c1cnn2C)C1COc2cc(-c3cnn(C)c3)ccc21 (stereo not drawn) [Example 140-P1] | < 10
COc1ncc(NC(=O)C(=O)N(C)C2COc3cc(C(F)(F)F)ccc32)cc1C(N)=O (stereo not drawn) [Example 142] | 1000 to 10000
COc1ncc(NC(=O)C(=O)N(C)C2COCc3cc(C(F)(F)F)ccc32)cc1C(N)=O (stereo not drawn) [Example 143] | 100 to 1000
CN(C(=O)C(=O)Nc1cnc(N)c2c1cnn2C)C1COCc2cc(C3CCOCC3)ccc21 (stereo not drawn) [Example 144] | 10 to 100
Cc1cn(-c2ccc3c(c2)COCC3N(C)C(=O)C(=O)Nc2cnc(N)c3c2cnn3C)cn1 (stereo not drawn) [Example 145] | 10 to 100
CN(C(=O)C(=O)Nc1cnc(N)c2c1cnn2C)C1COC(C)(C)c2cc(C(F)(F)F)ccc21 (stereo not drawn) [Example 147] | 10 to 100
CN(C(=O)C(=O)Nc1cnc(N)c2c1cnn2C)C1COCc2c1cccc2C(F)(F)F (stereo not drawn) [Example 148] | 10 to 100
CN1CCN(c2ccc3c(c2)COCC3N(C)C(=O)C(=O)Nc2cnc(N)c3c2cnn3C)CC1 (stereo not drawn) [Example 149] | 10 to 100
Cc1c(-c2ccc3c(c2)COCC3N(C)C(=O)C(=O)Nc2cnc(N)c3c2cnn3C)cnn1C (stereo not drawn) [Example 150] | < 10
CN(C(=O)C(=O)Nc1cnc(N)c2c1cnn2C)C1COCc2ncccc21 (stereo not drawn) [Example 151] | 10 to 100
CN(C(=O)C(=O)Nc1cnc(N)c2c1cnn2C)C1COCc2cc(-c3cnn4c3CCC4)ccc21 (stereo not drawn) [Example 154] | < 10
CN(C(=O)C(=O)Nc1cnc(N)c2c1cnn2C)C1COCc2cc(Cl)c(Cl)cc21 (stereo not drawn) [Example 158] | < 10

Compound | GI50 [nM]
COc1ncc(NC(=O)C(=O)N(C)C2COCc3cc(C4=CCOCC4)ccc32)cc1C(N)=O (stereo not drawn) [Example 166] | 100 to 1000
CN(C(=O)C(=O)Nc1cnc(N)c2c1cnn2C)C1COc2cc(C3=CCCOC3)ccc21 (stereo not drawn) [Example 169] | 10 to 100
Cc1ncc(-c2ccc3c(c2)OCC3N(C)C(=O)C(=O)Nc2cnc(N)c3c2cnn3C)s1 (stereo not drawn) [Example 170] | < 10
CN(C(=O)C(=O)Nc1cnc(N)c2c1cnn2C)C1COCc2cc(OC3CC3)ccc21 (stereo not drawn) [Example 171] | 10 to 100
CN(C(=O)C(=O)Nc1cnc(N)c2c1cnn2C)C1COCc2cc(N3CCOCC3)ccc21 (stereo not drawn) [Example 175] | 10 to 100
CN(C(=O)C(=O)Nc1cnc(N)c2c1cnn2C)C1COc2cc(C(F)(F)F)cc(F)c21 (stereo not drawn) [Example 176] | 10 to 100
CN(C(=O)C(=O)Nc1cnc(N)c2c1cnn2C)C1COc2cc(-c3ccc(C(F)(F)F)cn3)ccc21 (stereo not drawn) [Example 177] | 10 to 100
Cc1cc(-c2ccc3c(c2)COCC3N(C)C(=O)C(=O)Nc2cnc(N)c3c2cnn3C)on1 (stereo not drawn) [Example 179] | 10 to 100
CN(C(=O)C(=O)Nc1cnc(N)c2c1cnn2C)C1COc2cc(C(F)(F)F)ncc21 (stereo not drawn) [Example 188] | 10 to 100
CN(C(=O)C(=O)Nc1cnc(N)c2c1cnn2C)C1COc2cc(S(C)(=O)=O)ccc21 (stereo not drawn) [Example 189] | 10 to 100
CN(C(=O)C(=O)Nc1cnc(N)c2c1cnn2C)C1COc2cc(C3CCOCC3)ccc21 (stereo not drawn) [Example 190] | 10 to 100
CN(C(=O)C(=O)Nc1cnc(N)c2c1cnn2C)C1COCc2cc(-c3cnc(C(F)(F)F)s3)ccc21 (stereo not drawn) [Example 191] | < 10
CN(C(=O)C(=O)Nc1cnc(N)c2c1cnn2C)C1COc2cc(C3CC3)ccc21 (stereo not drawn) [Example 193] | 10 to 100
CN(C(=O)C(=O)Nc1cnc(N)c2c1cnn2C)C1COc2cc(OC(F)(F)F)ccc21 (stereo not drawn) [Example 196] | 10 to 100
CN(C(=O)C(=O)Nc1cnc(N)c2c1cnn2C)C1COCc2cc(C34CCOCC3C4)ccc21 (stereo not drawn) [Example 197] | < 10
CN(C(=O)C(=O)Nc1cnc(N)c2c1cnn2C)C1COc2cc(C#N)ccc21 (stereo not drawn) [Example 198] | 10 to 100
CN(C(=O)C(=O)Nc1cnc(N)c2c1cnn2C)C1COc2cc(C(F)(F)F)c(F)cc21 (stereo not drawn) [Example 199] | 10 to 100
Cc1nn(C)cc1-c1ccc2c(c1)COCC2N(C)C(=O)C(=O)Nc1cnc(N)c2c1cnn2C (stereo not drawn) [Example 200] | < 10
COc1ccc(-c2ccc3c(c2)COCC3N(C)C(=O)C(=O)Nc2cnc(N)c3c2cnn3C)cn1 (stereo not drawn) [Example 202] | < 10
CN(C(=O)C(=O)Nc1cnc(N)c2c1cnn2C)C1COCc2cc(C3(F)CNC3)ccc21 (stereo not drawn) [Example 203] | 10 to 100
CN(C(=O)C(=O)Nc1cnc(N)c2c1cnn2C)C1COc2cc(OC(F)F)ccc21 (stereo not drawn) [Example 204] | 10 to 100
CN(C(=O)C(=O)Nc1cnc(N)c2c1cnn2C)C1COc2cc(N3CCOCC3)ccc21 (stereo not drawn) [Example 205] | 10 to 100
CCc1ccc2c(c1)OCC2N(C)C(=O)C(=O)Nc1cnc(N)c2c1cnn2C (stereo not drawn) [Example 206] | < 10
Cc1ncc(-c2ccc3c(c2)COCC3N(C)C(=O)C(=O)Nc2cnc(N)c3c2cnn3C)o1 (stereo not drawn) [Example 207] | < 10
CN(C(=O)C(=O)Nc1cnc(N)c2c1cnn2C)C1COc2c1ccc(C(F)(F)F)c2F (stereo not drawn) [Example 208] | 10 to 100
CN(C(=O)C(=O)Nc1cnc(N)c2c1cnn2C)C1COc2cc(C(F)(F)C(F)(F)F)ccc21 (stereo not drawn) [Example 210] | < 10

same assay, conditions: HCT116^MTAP Deletion cells, 10 days incubation, CTG readout; read-out: HCT116^MTAP Deletion GI50

Compound | GI50 [nM]
CN(C(=O)C(=O)Nc1cnc(N)c2c1cnn2C)C1COCc2cc(-c3cnn(C)c3)ccc21 (stereo not drawn) [Example 124-P2] | 10 to 100
CCC(C)N(Cc1ccc(C2=CCN(C(=O)OC)CC2)cn1)C(=O)C(=O)Nc1cnc(N)c(C)c1 (stereo not drawn) [Example 125-P2] | < 10
CN(C(=O)C(=O)Nc1cnc(N)c2c1cnn2C)C1COCc2cc(C3=CCOCC3)ccc21 (stereo not drawn) [Example 132-P2] | 10 to 100
CN(C(=O)C(=O)Nc1cnc(N)c2c1cnn2C)C1COCc2cc(-c3ccnn3C)ccc21 (stereo not drawn) [Example 137] | < 10
CN(C(=O)C(=O)Nc1cnc(N)c2c1cnn2C)C1COCc2c1ccc(F)c2F (stereo not drawn) [Example 138] | 10 to 100
CN(C(=O)C(=O)Nc1cnc(N)c2c1cnn2C)C1COc2cc(-c3cnn(C)c3)ccc21 (stereo not drawn) [Example 140-P2] | 10 to 100
CN(C(=O)C(=O)Nc1cnc(N)c2c1cnn2C)C1COCc2c1ccc(F)c2F (stereo not drawn) [Example 141-P1] | 10 to 100
CN(C(=O)C(=O)Nc1cnc(N)c2c1cnn2C)C1COCc2c1ccc(F)c2F (stereo not drawn) [Example 141-P2] | 100 to 1000
CN(C(=O)C(=O)Nc1cnc(N)c2c1cnn2C)C1COc2nc(C(F)(F)F)ccc21 (stereo not drawn) [Example 159] | 100 to 1000
CN1CC=C(c2ccc3c(c2)COCC3N(C)C(=O)C(=O)Nc2cnc(N)c3c2cnn3C)CC1 (stereo not drawn) [Example 160] | 10 to 100
CN(C(=O)C(=O)Nc1cnc(N)c2c1cnn2C)C1COc2cc(-c3cnn(C4CC4)c3)ccc21 (stereo not drawn) [Example 211] | < 10
CN(C(=O)C(=O)Nc1cnc(N)c2c1cnn2C)C1COc2cc(-c3ccnn3C3CC3)ccc21 (stereo not drawn) [Example 212] | < 10
CN(C(=O)C(=O)Nc1cnc(N)c2c1cnn2C)C1COc2cc(-c3cnn(C(F)(F)F)c3)ccc21 (stereo not drawn) [Example 213] | < 10
